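Five compound concentrations were applied to cells in 96-well plates for 48 hours; endpoints were derived by simple linear interpolation of the resulting dose-response curve. GI50: concentration for 50% inhibition of growth.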 Active and inactive are the calls of the source. No stated cut-off is given here; in the data, active = GI50 up to about 1.1 µM and inactive = higher.
Assays:
Assay in all cases: NCI-60 cell line screen, 48 h
[1] = test system: Malme-3M
[2] = test system: SN12C
[3] = test system: SNB-75
[4] = test system: T47D
[5] = test system: UACC-257
[6] = test system: SF-268
[7] = test system: COLO 205
[8] = test system: SK-OV-3
[9] = test system: OVCAR-3
[10] = test system: HCT-15
[11] = test system: UO-31
[12] = test system: NCI-H460
[13] = test system: CAKI-1
[14] = test system: K562
[15] = test system: MDA-MB-231
[16] = test system: MOLT-4
[17] = test system: DU-145
[18] = test system: M14
[19] = test system: Hs-578T
[20] = test system: EKVX
[21] = test system: NCI-H23
[22] = test system: LOX IMVI
[23] = test system: SW-620
[24] = test system: SNB-19
[25] = test system: SK-MEL-2
[26] = test system: BT-549
[27] = test system: A549
[28] = test system: SF-295
[29] = test system: HCT-116
[30] = test system: IGROV-1
[31] = test system: HL-60
[32] = test system: UACC-62
[33] = test system: SF-539
[34] = test system: MDA-N
[35] = test system: NCI-H226
[36] = test system: CCRF-CEM
[37] = test system: KM12
[38] = test system: RXF 393
[39] = test system: HOP-62
[40] = test system: NCI/ADR-RES
[41] = test system: SR
[42] = test system: SK-MEL-28
[43] = test system: HT-29
[44] = test system: PC-3
[45] = test system: OVCAR-8
[46] = test system: ACHN
[47] = test system: A498
[48] = test system: SK-MEL-5
[49] = test system: TK-10
[50] = test system: MDA-MB-435
[51] = test system: OVCAR-5
[52] = test system: 786-0
[53] = test system: MCF7
[54] = test system: U-251
[55] = test system: OVCAR-4
[56] = test system: NCI-H522
[57] = test system: HOP-92
[58] = test system: RPMI-8226
[59] = test system: HCC 2998

Measured: GI50

CC1=NN(c2ccccc2)C(=O)C1/N=N/c1ccc(S(N)(=O)=O)cc1 (stereo not drawn)
> 100 µM: [10]
inactive: [1] > 100 µM | [2] > 100 µM | [3] > 100 µM | [4] > 100 µM | [5] > 100 µM | [6] > 100 µM | [7] > 100 µM | [8] > 100 µM | [9] > 100 µM | [11] > 100 µM | [12] > 100 µM | [13] > 100 µM | [14] > 100 µM | [15] > 100 µM | [16] > 100 µM | [17] > 100 µM | [18] > 100 µM | [19] > 100 µM | [20] > 100 µM | [21] > 100 µM | [22] > 100 µM | [23] > 100 µM | [24] > 100 µM | [25] > 100 µM | [26] > 100 µM | [27] > 100 µM | [28] > 100 µM | [29] > 100 µM | [30] > 100 µM | [31] > 100 µM | [32] > 100 µM | [33] > 100 µM | [34] > 100 µM | [35] > 100 µM | [36] > 100 µM | [37] > 100 µM | [38] > 100 µM | [39] > 100 µM | [40] > 100 µM | [41] > 100 µM | [42] > 100 µM | [43] > 100 µM | [44] > 100 µM | [45] > 100 µM | [46] > 100 µM | [47] > 100 µM | [48] > 100 µM | [49] > 100 µM | [50] > 100 µM | [51] > 100 µM | [52] > 100 µM | [53] > 100 µM | [54] > 100 µM | [55] > 100 µM | [56] > 100 µM | [57] > 100 µM | [58] > 100 µM

O=C(Oc1ccc(OC(Oc2ccccc2)c2ccccc2)cc1)c1ccccc1 (stereo not drawn)
> 10 µM: [10]
inactive: [1] 13.2 µM | [59] 17.6 µM | [2] 28.8 µM | [3] 27.5 µM | [4] 50 µM | [5] 17.9 µM | [6] 13 µM | [7] > 31.6 µM | [8] 27.2 µM | [9] 25.4 µM | [11] 16 µM | [12] > 63.2 µM | [13] > 10 µM | [14] > 31.6 µM | [15] 28 µM | [16] 16 µM | [17] > 31.6 µM | [18] 8.38 µM | [19] > 31.6 µM | [20] 29.7 µM | [21] 6.21 µM | [22] 22.1 µM | [23] > 31.6 µM | [24] > 31.6 µM | [25] 17.3 µM | [26] 26.5 µM | [27] 21.1 µM | [28] 14.7 µM | [29] 16.1 µM | [30] 15.2 µM | [31] 16.3 µM | [32] > 31.6 µM | [34] 14.4 µM | [35] > 31.6 µM | [36] 17.3 µM | [37] 18.7 µM | [38] > 92.3 µM | [39] 13.9 µM | [40] 27.9 µM | [41] 19.1 µM | [42] 17.1 µM | [43] 22.9 µM | [44] 25.6 µM | [45] > 31.6 µM | [46] 26.7 µM | [47] 18.6 µM | [48] 22.1 µM | [49] 31.3 µM | [50] 24.6 µM | [51] > 74.1 µM | [52] > 31.6 µM | [53] 29.8 µM | [54] > 75.7 µM | [55] 15 µM | [56] 49.2 µM | [58] 13.2 µM

CCOC(=O)/C(C(=O)c1ccc[nH]1)=C1/CCCN1C
> 100 µM: [10]
inactive: [1] > 100 µM | [59] > 100 µM | [2] > 100 µM | [3] > 100 µM | [4] > 100 µM | [5] > 100 µM | [6] > 100 µM | [7] > 100 µM | [8] > 100 µM | [9] > 100 µM | [11] > 100 µM | [12] > 100 µM | [13] > 100 µM | [14] > 100 µM | [15] > 100 µM | [16] 49.5 µM | [17] > 100 µM | [18] > 100 µM | [19] > 100 µM | [20] > 100 µM | [21] > 100 µM | [22] > 100 µM | [23] > 100 µM | [24] > 100 µM | [25] > 100 µM | [26] > 100 µM | [27] > 100 µM | [28] > 100 µM | [29] > 100 µM | [30] > 100 µM | [31] > 100 µM | [32] > 100 µM | [33] > 100 µM | [34] > 100 µM | [35] > 100 µM | [36] > 100 µM | [37] > 100 µM | [38] > 100 µM | [39] > 100 µM | [40] > 100 µM | [41] > 100 µM | [42] > 100 µM | [43] > 100 µM | [44] > 100 µM | [45] > 100 µM | [46] > 100 µM | [47] > 100 µM | [48] > 100 µM | [49] > 100 µM | [50] > 100 µM | [51] > 100 µM | [52] > 100 µM | [53] > 100 µM | [54] > 100 µM | [55] > 100 µM | [58] > 100 µM

CC(=O)NCCC1CNc2ccccc21 (stereo not drawn)
> 100 µM: [10]
inactive: [1] > 100 µM | [59] > 100 µM | [2] > 100 µM | [4] > 100 µM | [5] > 100 µM | [6] > 100 µM | [7] > 100 µM | [8] > 100 µM | [9] > 100 µM | [11] > 100 µM | [12] > 100 µM | [13] > 100 µM | [14] > 100 µM | [15] > 100 µM | [16] > 100 µM | [17] > 100 µM | [18] > 100 µM | [19] > 100 µM | [20] > 100 µM | [21] > 100 µM | [22] > 100 µM | [23] > 100 µM | [24] > 100 µM | [25] > 100 µM | [26] > 100 µM | [27] > 100 µM | [28] > 100 µM | [29] > 100 µM | [30] > 100 µM | [31] > 100 µM | [32] > 100 µM | [33] > 100 µM | [34] > 100 µM | [35] > 100 µM | [36] > 100 µM | [37] > 100 µM | [38] > 100 µM | [40] > 100 µM | [41] > 100 µM | [42] > 100 µM | [43] > 100 µM | [44] > 100 µM | [45] > 100 µM | [46] > 100 µM | [47] > 100 µM | [48] > 100 µM | [49] > 100 µM | [50] > 100 µM | [51] > 100 µM | [53] > 100 µM | [54] > 100 µM | [55] > 100 µM | [56] > 100 µM | [57] > 100 µM | [58] > 100 µM

O=C1/C(=C/c2ccccc2S)N=C(c2ccccc2)N1c1nc2c(Cl)cc(Cl)cc2s1
inactive: [59] 26.4 µM | [2] 22.3 µM | [3] 30.1 µM | [4] 31.7 µM | [5] 28.9 µM | [6] 36.3 µM | [7] 21.7 µM | [8] 20.9 µM | [9] 17.3 µM | [11] 21 µM | [12] 27.5 µM | [13] 32.6 µM | [14] 23.5 µM | [15] 40.4 µM | [16] 12.6 µM | [17] 32.5 µM | [18] 25.9 µM | [19] 23.7 µM | [20] 11.6 µM | [22] 20.4 µM | [23] 27.7 µM | [24] 27.8 µM | [25] 24 µM | [26] 26.7 µM | [27] 21.9 µM | [28] 24.7 µM | [29] 17.7 µM | [30] 20.9 µM | [31] 16.4 µM | [32] 20.4 µM | [33] 17 µM | [34] 18.1 µM | [36] 2.27 µM | [37] 24.3 µM | [38] 23.7 µM | [39] 16.6 µM | [40] 26.8 µM | [41] 15.2 µM | [42] 35.4 µM | [43] 18.4 µM | [44] 23.9 µM | [45] 22.2 µM | [46] 22.6 µM | [47] 18.3 µM | [48] 17.7 µM | [49] 37.1 µM | [50] 21.8 µM | [51] 18.7 µM | [52] 24.3 µM | [53] 22.3 µM | [54] 23.4 µM | [55] 28.4 µM | [57] 19.5 µM | [58] 21.8 µM
31.1 µM: [10]

— ChEMBL document CHEMBL1201862, “PubChem BioAssay data set” (2004)
